Columns and labels:
Assay type in all cases: in vivo
[1] = system: field corn (Zea mays L., var. Dekalb 535, CORN); assay: Post-emerge test, crop safety; settings: phytotoxicity rating 0-100 (0 no damage, 100 complete death), 14 days after application
Summary of the method: (§1)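 Compounds in acetone were track-sprayed at 187 l/ha, 15–1000 g ai/ha, onto sandy loam pots. Pre-emerge seeds were sown one day before spraying, with surface watering afterwards. Post-emerge plants were at the 2–3 leaf stage and sprayed with 0.25% v/v non-ionic surfactant. Injury was rated 0–100 at 14 days.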

[2] = system: upland rice (Oryza sp., var. Tebonnet, RICE); assay: Post-emerge test, crop safety; settings: phytotoxicity rating 0-100 (0 no damage, 100 complete death), 14 days after application
Summary of the method: as §1

[3] = system: velvetleaf (Abutilon theophrasti, ABUTH); assay: Post-emerge test, greenhouse herbicide activity screening; settings: phytotoxicity rating 0-100 (0 no damage, 100 complete death), 14 days after application
Summary of the method: (§2)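 Plants grown in 10 cm pots of sandy loam mix received acetone-dissolved compounds through a moving flat-fan nozzle. Doses ranged from 15 to 1000 g ai/ha. Pre-emerge pots were seeded one day earlier, post-emerge pots 8–21 days earlier. Fourteen days on, each pot was graded 0–100 for damage.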

[4] = system: barnyardgrass (Echinochloa crus-galli, ECHCG); assay: as above; settings: phytotoxicity rating 0-100 (0 no damage, 100 complete death), 14 days after application
Summary of the method: as §2

[5] = system: large crabgrass (Digitaria sanguinalis, DIGSA); assay: as above; settings: phytotoxicity rating 0-100 (0 no damage, 100 complete death), 14 days after application
Summary of the method: as §2

[6] = system: lambsquarters (Chenopodium album, CHEAL); assay: as above; settings: phytotoxicity rating 0-100 (0 no damage, 100 complete death), 14 days after application
Summary of the method: as §2

[7] = system: sicklepod (Cassia obtusifolia, CASOB); assay: as above; settings: phytotoxicity rating 0-100 (0 no damage, 100 complete death), 14 days after application
Summary of the method: as §2

[8] = system: ivyleaf morningglory (Ipomoea hederacea, IPOHE); assay: as above; settings: phytotoxicity rating 0-100 (0 no damage, 100 complete death), 14 days after application
Summary of the method: as §2

[9] = system: redroot pigweed (Amaranthus retroflexus, AMARE); assay: as above; settings: phytotoxicity rating 0-100 (0 no damage, 100 complete death), 14 days after application
Summary of the method: as §2

[10] = system: green foxtail (Setaria viridis, SETVI); assay: as above; settings: phytotoxicity rating 0-100 (0 no damage, 100 complete death), 14 days after application
Summary of the method: as §2

[11] = system: johnsongrass (Sorghum halepense, SORHA); assay: as above; settings: phytotoxicity rating 0-100 (0 no damage, 100 complete death), 14 days after application
Summary of the method: as §2

[12] = system: common ragweed (Ambrosia artemisizfolia L., AMBEL); assay: as above; settings: phytotoxicity rating 0-100 (0 no damage, 100 complete death), 14 days after application
Summary of the method: as §2

[13] = system: field corn (Zea mays L., var. Dekalb 535, CORN); assay: Pre-emerge test, crop safety; settings: pre-emerge, rated 14 days after application, 0 = no damage, 100 = complete death
Summary of the method: (§3)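 Compounds in acetone were track-sprayed at 15-1000 g ai/ha (187 l/ha) on sandy loam pots: pre-emerge one day after seeding, post-emerge at 2-3 leaf stage with 0.25% v/v non-ionic surfactant. Phytotoxicity was rated 14 days later on a 0 (no damage) to 100 (complete death) scale.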

[14] = system: upland rice (Oryza sp., var. Tebonnet, RICE); assay: Pre-emerge test, crop safety; settings: pre-emerge, rated 14 days after application, 0 = no damage, 100 = complete death
Summary of the method: as §3

[15] = system: velvetleaf (Abutilon theophrasti, ABUTH); assay: Pre-emerge test, greenhouse herbicide activity screening; settings: pre-emerge, rated 14 days after application, 0 = no damage, 100 = complete death
Summary of the method: as §1

[16] = system: barnyardgrass (Echinochloa crus-galli, ECHCG); assay: as above; settings: pre-emerge, rated 14 days after application, 0 = no damage, 100 = complete death
Summary of the method: as §1

[17] = system: large crabgrass (Digitaria sanguinalis, DIGSA); assay: as above; settings: pre-emerge, rated 14 days after application, 0 = no damage, 100 = complete death
Summary of the method: as §1

[18] = system: lambsquarters (Chenopodium album, CHEAL); assay: as above; settings: pre-emerge, rated 14 days after application, 0 = no damage, 100 = complete death
Summary of the method: as §1

[19] = system: sicklepod (Cassia obtusifolia, CASOB); assay: as above; settings: pre-emerge, rated 14 days after application, 0 = no damage, 100 = complete death
Summary of the method: as §1

[20] = system: ivyleaf morningglory (Ipomoea hederacea, IPOHE); assay: as above; settings: pre-emerge, rated 14 days after application, 0 = no damage, 100 = complete death
Summary of the method: as §1

[21] = system: green foxtail (Setaria viridis, SETVI); assay: as above; settings: pre-emerge, rated 14 days after application, 0 = no damage, 100 = complete death
Summary of the method: as §1

[22] = system: johnsongrass (Sorghum halepense, SORHA); assay: as above; settings: pre-emerge, rated 14 days after application, 0 = no damage, 100 = complete death
Summary of the method: as §1

[23] = system: common ragweed (Ambrosia artemisizfolia L., AMBEL); assay: as above; settings: pre-emerge, rated 14 days after application, 0 = no damage, 100 = complete death
Summary of the method: as §1

[24] = system: redroot pigweed (Amaranthus retroflexus, AMARE); assay: as above; settings: pre-emerge, rated 14 days after application, 0 = no damage, 100 = complete death
Summary of the method: as §1

COc1c(Cl)cc(F)c(-n2c(=O)cc(C(F)(F)F)n(C)c2=O)c1NC(=O)c1ccc(C)cc1 [2-24]
Post-emerge Herbicidal Activity CORN (crop damage) ([1]; 63 g ai/ha): 70 | Post-emerge Herbicidal Activity CORN (crop damage) ([1]; 250 g ai/ha): 95 | Post-emerge Herbicidal Activity RICE (crop damage) ([2]; 63 g ai/ha): 70 | Post-emerge Herbicidal Activity RICE (crop damage) ([2]; 250 g ai/ha): 90 | Post-emerge Herbicidal Activity ABUTH ([3]; 63 g ai/ha): 100 | Post-emerge Herbicidal Activity ABUTH ([3]; 250 g ai/ha): 100 | Post-emerge Herbicidal Activity ECHCG ([4]; 63 g ai/ha): 70 | Post-emerge Herbicidal Activity ECHCG ([4]; 250 g ai/ha): 95 | Post-emerge Herbicidal Activity DIGSA ([5]; 63 g ai/ha): 10 | Post-emerge Herbicidal Activity DIGSA ([5]; 250 g ai/ha): 50 | Post-emerge Herbicidal Activity CHEAL ([6]; 63 g ai/ha): 99 | Post-emerge Herbicidal Activity CHEAL ([6]; 250 g ai/ha): 100 | Post-emerge Herbicidal Activity CASOB ([7]; 63 g ai/ha): 100 | Post-emerge Herbicidal Activity CASOB ([7]; 250 g ai/ha): 100 | Post-emerge Herbicidal Activity IPOHE ([8]; 63 g ai/ha): 100 | Post-emerge Herbicidal Activity IPOHE ([8]; 250 g ai/ha): 100 | Post-emerge Herbicidal Activity AMARE ([9]; 63 g ai/ha): 100 | Post-emerge Herbicidal Activity AMARE ([9]; 250 g ai/ha): 100 | Post-emerge Herbicidal Activity SETVI ([10]; 63 g ai/ha): 20 | Post-emerge Herbicidal Activity SETVI ([10]; 250 g ai/ha): 70 | Post-emerge Herbicidal Activity SORHA ([11]; 63 g ai/ha): 60 | Post-emerge Herbicidal Activity SORHA ([11]; 250 g ai/ha): 90 | Post-emerge Herbicidal Activity AMBEL ([12]; 63 g ai/ha): 100 | Post-emerge Herbicidal Activity AMBEL ([12]; 250 g ai/ha): 100 | Pre-emerge crop damage CORN (phytotoxicity rating, scale 0-100) ([13]; 63 g ai/ha): 95 | Pre-emerge crop damage CORN (phytotoxicity rating, scale 0-100) ([13]; 250 g ai/ha): 98 | Pre-emerge crop damage RICE (phytotoxicity rating, scale 0-100) ([14]; 63 g ai/ha): 90 | Pre-emerge crop damage RICE (phytotoxicity rating, scale 0-100) ([14]; 250 g ai/ha): 99 | Pre-emerge Herbicidal Activity ABUTH (phytotoxicity rating, scale 0-100) ([15]; 63 g ai/ha): 100 | Pre-emerge Herbicidal Activity ABUTH (phytotoxicity rating, scale 0-100) ([15]; 250 g ai/ha): 100 | Pre-emerge Herbicidal Activity ECHCG (phytotoxicity rating, scale 0-100) ([16]; 63 g ai/ha): 95 | Pre-emerge Herbicidal Activity ECHCG (phytotoxicity rating, scale 0-100) ([16]; 250 g ai/ha): 100 | Pre-emerge Herbicidal Activity DIGSA (phytotoxicity rating, scale 0-100) ([17]; 63 g ai/ha): 100 | Pre-emerge Herbicidal Activity DIGSA (phytotoxicity rating, scale 0-100) ([17]; 250 g ai/ha): 100 | Pre-emerge Herbicidal Activity CHEAL (phytotoxicity rating, scale 0-100) ([18]; 63 g ai/ha): 100 | Pre-emerge Herbicidal Activity CHEAL (phytotoxicity rating, scale 0-100) ([18]; 250 g ai/ha): 100 | Pre-emerge Herbicidal Activity CASOB (phytotoxicity rating, scale 0-100) ([19]; 63 g ai/ha): 90 | Pre-emerge Herbicidal Activity CASOB (phytotoxicity rating, scale 0-100) ([19]; 250 g ai/ha): 100 | Pre-emerge Herbicidal Activity IPOHE (phytotoxicity rating, scale 0-100) ([20]; 63 g ai/ha): 100 | Pre-emerge Herbicidal Activity IPOHE (phytotoxicity rating, scale 0-100) ([20]; 250 g ai/ha): 100 | Pre-emerge Herbicidal Activity SETVI (phytotoxicity rating, scale 0-100) ([21]; 63 g ai/ha): 100 | Pre-emerge Herbicidal Activity SETVI (phytotoxicity rating, scale 0-100) ([21]; 250 g ai/ha): 100 | Pre-emerge Herbicidal Activity SORHA (phytotoxicity rating, scale 0-100) ([22]; 63 g ai/ha): 95 | Pre-emerge Herbicidal Activity SORHA (phytotoxicity rating, scale 0-100) ([22]; 250 g ai/ha): 100 | Pre-emerge Herbicidal Activity AMBEL (phytotoxicity rating, scale 0-100) ([23]; 63 g ai/ha): 100 | Pre-emerge Herbicidal Activity AMBEL (phytotoxicity rating, scale 0-100) ([23]; 250 g ai/ha): 100 | Pre-emerge Herbicidal Activity AMARE (phytotoxicity rating, scale 0-100) ([24]; 63 g ai/ha): 100 | Pre-emerge Herbicidal Activity AMARE (phytotoxicity rating, scale 0-100) ([24]; 250 g ai/ha): 100
